Each cell line was assayed with O=C(Nc1cc(C(F)(F)F)cc(C(F)(F)F)c1)c1cc(Cl)ccc1O [IMD-0354] + Nc1nc2[nH]cc(CCc3ccc(C(=O)N[C@@H](CCC(=O)O)C(=O)O)cc3)c2c(=O)[nH]1 [Pemetrexed] (partner 0.2 µM) (assay: relative viability (nuclei count vs DMSO), 5 days (fraction); higher = more cells survive). Conditions: first compound 4 µM.
In short: (§1)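 One day after seeding in 1536-well plates, lung cancer cell lines were dosed by pin tool. Dosing was either single-drug or a fixed anchor-drug dose plus five library-drug doses (not always all listed) in √10 steps. After 5 days, nuclei were stained in one fix-and-stain step and counted on 4× images, and relative viability is the nuclei count of treated wells over that of vehicle wells, given as the median of duplicate plates.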

Cell Line	relative viability
NCI-H1755	0.291
NCI-H2023	0.103
HCC-15	0.172
NCI-H1944	0.122

What follows are cell lines tested with O=C(Nc1cc(C(F)(F)F)cc(C(F)(F)F)c1)c1cc(Cl)ccc1O [IMD-0354] + COc1cc2c(Oc3ccc(NC(=O)C4(C(=O)Nc5ccc(F)cc5)CC4)cc3F)ccnc2cc1OCCCN1CCOCC1 [Foretinib] (partner 0.25 µM) in the same assay as above. Conditions: first compound 0.04 µM.
In short: as §1

Cell Line	relative viability
HOP-62	1.13
LU99A	0.655
BEN	0.739
HARA	1.07
HCC-78	0.554
NCI-H322M	1.12
LCLC-97TM1	0.929
NCI-H2009	1.22
A-427	0.972
NCI-H441	0.919
NCI-H1734	0.928
NCI-H460	0.988
NCI-H2347	1.11
SW 1573	0.891
NCI-H1793	0.844
201T	1.18

Cell Line	relative viability
NCI-H1915	0.976
HCC-827	1.05
LXF-289	0.945
NCI-H23	0.969
NCI-H647	1.57
CAL-12T	1.25
NCI-H1651	0.816
EPLC-272H	0.761
NCI-H2228	1.05
NCI-H1355	1.11
NCI-H3122	0.959
NCI-H1437	1.34
NCI-H1755	0.912
NCI-H2023	0.938
HCC-15	1.03
NCI-H1944	0.873

Same assay, conditions: first compound 0.1265 µM

Cell Line	relative viability
HOP-62	1.03
LU99A	0.806
BEN	0.731
HARA	0.866
HCC-78	0.574
NCI-H322M	0.907
LCLC-97TM1	0.824
NCI-H2009	1.18
A-427	1.08
NCI-H441	0.872
NCI-H1734	0.902
NCI-H460	0.858
NCI-H2347	0.842
SW 1573	0.928
NCI-H1793	0.622
201T	1.18

Cell Line	relative viability
NCI-H1915	1.15
HCC-827	0.978
LXF-289	0.99
NCI-H23	0.955
NCI-H647	1.27
CAL-12T	0.844
NCI-H1651	0.716
EPLC-272H	0.61
NCI-H2228	0.921
NCI-H1355	0.943
NCI-H3122	0.964
NCI-H1437	1.16
NCI-H1755	1.05
NCI-H2023	0.867
HCC-15	0.891
NCI-H1944	0.963

Same assay, conditions: first compound 0.4 µM

Cell Line	relative viability
HOP-62	0.42
LU99A	0.612
BEN	0.448
HARA	0.568
HCC-78	0.488
NCI-H322M	0.716
LCLC-97TM1	0.673
NCI-H2009	0.817
A-427	0.594
NCI-H441	0.478
NCI-H1734	0.548
NCI-H460	0.366
NCI-H2347	0.523
SW 1573	0.579
NCI-H1793	0.305
201T	1.05

Cell Line	relative viability
NCI-H1915	0.491
HCC-827	0.625
LXF-289	0.646
NCI-H23	0.49
NCI-H647	0.426
CAL-12T	0.638
NCI-H1651	0.433
EPLC-272H	0.512
NCI-H2228	0.416
NCI-H1355	0.646
NCI-H3122	0.722
NCI-H1437	0.624
NCI-H1755	0.854
NCI-H2023	0.571
HCC-15	0.636
NCI-H1944	0.887

Same assay, conditions: first compound 1.265 µM

Cell Line	relative viability
HOP-62	0.449
LU99A	0.682
BEN	0.193
HARA	0.159
HCC-78	0.701
NCI-H322M	0.31
LCLC-97TM1	0.34
NCI-H2009	0.406
A-427	0.655
NCI-H441	0.28
NCI-H1734	0.549
NCI-H460	0.0865
NCI-H2347	0.599
SW 1573	0.61
NCI-H1793	0.22
201T	0.235

Cell Line	relative viability
NCI-H1915	0.818
HCC-827	0.282
LXF-289	0.483
NCI-H23	0.265
NCI-H647	0.554
CAL-12T	0.486
NCI-H1651	0.312
EPLC-272H	0.269
NCI-H2228	0.515
NCI-H1355	0.908
NCI-H3122	0.779
NCI-H1437	0.424
NCI-H1755	0.586
NCI-H2023	0.225
HCC-15	0.178
NCI-H1944	0.945

Same assay, conditions: first compound 4 µM

Cell Line	relative viability
HOP-62	0.118
LU99A	0.273
BEN	0.196
HARA	0.125
HCC-78	0.322
NCI-H322M	0.402
LCLC-97TM1	0.164
NCI-H2009	0.147
A-427	0.168
NCI-H441	0.272
NCI-H1734	0.19
NCI-H460	0.026
NCI-H2347	0.513
SW 1573	0.123
NCI-H1793	0.202
201T	0.178

Cell Line	relative viability
NCI-H1915	0.272
HCC-827	0.19
LXF-289	0.129
NCI-H23	0.232
NCI-H647	0.148
CAL-12T	0.154
NCI-H1651	0.0982
EPLC-272H	0.0781
NCI-H2228	0.17
NCI-H1355	0.298
NCI-H3122	0.129
NCI-H1437	0.251
NCI-H1755	0.278
NCI-H2023	0.0843
HCC-15	0.152
NCI-H1944	0.154

Each cell line was assayed with Cc1cnc(CNC(=O)c2c(=O)c3ccc(N4CCCN(C)CC4)nc3n3c2sc2ccccc23)cn1 [CX-5461] + CC1(C)CCC(c2ccc(Cl)cc2)=C(CN2CCN(c3ccc(C(=O)NS(=O)(=O)c4ccc(N[C@H](CCN5CCOCC5)CSc5ccccc5)c(S(=O)(=O)C(F)(F)F)c4)cc3)CC2)C1 [Navitoclax] (partner 0.5 µM) in the same assay as above. Conditions: first compound 0.01 µM.
In short: as §1

Cell Line	relative viability
HOP-62	0.908
LU99A	0.764
BEN	0.0792
HARA	1.11
HCC-78	0.984
NCI-H322M	1.34
LCLC-97TM1	0.405
NCI-H2009	1.18
A-427	1.05
NCI-H441	0.514
NCI-H1734	0.979
NCI-H460	1.04
NCI-H2347	0.968
SW 1573	0.974
NCI-H1793	0.485
201T	1.18

Cell Line	relative viability
NCI-H1915	0.799
HCC-827	1.07
LXF-289	0.94
NCI-H23	0.958
NCI-H647	1.26
CAL-12T	1.18
EPLC-272H	1.28
NCI-H2228	0.822
NCI-H1355	0.882
NCI-H3122	0.966
NCI-H1437	1.09
NCI-H1755	0.979
NCI-H2023	1.01
HCC-15	0.725
NCI-H1944	1.06

Same assay, conditions: first compound 0.03162 µM

Cell Line	relative viability
HOP-62	1.16
LU99A	0.938
BEN	0.0627
HARA	1.23
HCC-78	0.839
NCI-H322M	1.31
LCLC-97TM1	0.523
NCI-H2009	1.19
A-427	1.06
NCI-H441	0.821
NCI-H1734	0.896
NCI-H460	1.02
NCI-H2347	0.864
SW 1573	0.998
NCI-H1793	0.306
201T	1.22

Cell Line	relative viability
NCI-H1915	0.784
HCC-827	1.01
LXF-289	0.985
NCI-H23	0.859
NCI-H647	1.27
CAL-12T	1.25
NCI-H1651	0.882
EPLC-272H	1.3
NCI-H2228	0.572
NCI-H1355	1.03
NCI-H3122	1.04
NCI-H1437	1.1
NCI-H1755	0.992
NCI-H2023	1.03
HCC-15	0.773
NCI-H1944	1.09

Same assay, conditions: first compound 0.1 µM

Cell Line	relative viability
HOP-62	1.21
LU99A	0.741
BEN	0.052
HARA	1.17
HCC-78	0.724
NCI-H322M	1.12
LCLC-97TM1	0.325
NCI-H2009	1.08
A-427	0.961
NCI-H441	0.57
NCI-H1734	0.887
NCI-H460	0.273
NCI-H2347	0.858
SW 1573	1.05
NCI-H1793	0.37
201T	1.21
NCI-H1915	0.809
HCC-827	1.02
LXF-289	0.995
NCI-H23	0.986
NCI-H647	1.19
EPLC-272H	1.11
NCI-H2228	0.513
NCI-H1355	0.986
NCI-H3122	1.03
NCI-H1755	1.01
HCC-15	0.713
NCI-H1944	1.01

Same assay, conditions: first compound 0.3162 µM

Cell Line	relative viability
LU99A	0.676
BEN	0.0668
HARA	1.08
HCC-78	0.543
NCI-H2009	1.18
NCI-H441	0.703
NCI-H1734	0.728
NCI-H460	1.09
NCI-H2347	0.601
SW 1573	0.872
NCI-H1793	0.485
201T	1.18
NCI-H1915	0.743
HCC-827	1.02
LXF-289	0.875
NCI-H23	0.839
NCI-H647	0.709
CAL-12T	1.05
NCI-H1651	0.694
NCI-H2228	0.552
NCI-H1355	1.01
NCI-H3122	1.01
NCI-H1437	1.03
NCI-H1755	0.997
NCI-H2023	0.908
HCC-15	0.717

Same assay, conditions: first compound 1 µM

Cell Line	relative viability
HOP-62	1.02
LU99A	0.898
BEN	0.066
HARA	1.12
HCC-78	0.769
NCI-H322M	1.17
LCLC-97TM1	0.467
NCI-H2009	0.765
A-427	0.979
NCI-H441	0.583
NCI-H1734	0.761
NCI-H460	0.0167
NCI-H2347	0.73
SW 1573	1.12
NCI-H1793	0.443
201T	1.19

Cell Line	relative viability
NCI-H1915	0.758
HCC-827	0.975
LXF-289	0.957
NCI-H23	0.726
NCI-H647	0.7
CAL-12T	0.573
NCI-H1651	0.0867
EPLC-272H	1.13
NCI-H2228	0.0937
NCI-H1355	1
NCI-H3122	0.97
NCI-H1437	0.928
NCI-H1755	0.883
NCI-H2023	0.152
HCC-15	0.656
NCI-H1944	1.02
